Source: patent publication US20100210649A1, “PYRIDAZINONES AND FURAN-CONTAINING COMPOUNDS” (Sloan-Kettering Institute for Cancer Research, priority 2006, published 2010)
Read-outs that look alike come from different tables or passages of the source.

How the values were obtained:
H358 = experiment: Non Small Cell Lung Cancer proliferation assay (Alamar Blue reduction), H358; assay type: cell-based; conditions: Homo sapiens, NCI-H358
Method in brief: (§1)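 Dose-response run: cells were counted, dispensed at 250 cells/well onto compound, incubated 48 hours at 37° C, then incubated with Alamar Blue for an additional 48 hours before fluorescence measurement. All wells held 1% DMSO final.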

H1118 = experiment: Non Small Cell Lung Cancer proliferation assay (Alamar Blue reduction), H1118; assay type: cell-based; conditions: Homo sapiens
H2030 = experiment: Non Small Cell Lung Cancer proliferation assay (Alamar Blue reduction), H2030; assay type: cell-based, human; conditions: Homo sapiens
Method in brief: as §1

H1975 = experiment: Non Small Cell Lung Cancer proliferation assay (Alamar Blue reduction), H1975; assay type: cell-based, human; conditions: Homo sapiens
Method in brief: as §1

H2444 = experiment: Dose response study (Alamar Blue), H2444; assay type: cell-based; conditions: Homo sapiens, NCI-H2444; H2444; 12 point doubling dilution 10 uM to 5 nM; 48 h treatment, alamar blue additional 48 h; read-out: IC50 H2444
Experimental: Dose response studies against 34 compounds from the pyridazinone and phenylfuran-carboxamide class were conducted. […] In addition, Tarceva was included in these dose response studies.
The dose response studies were done with the following standard procedure. First, the cells were counted and dispensed at 250 cells/well into 384-well microplates with compound. The cells were incubated for 48 hours at 37 C to complete treatment, and then alamar blue was added for an additional 48 hours. Finally, alamar blue reduction was measured and the data was loaded into ORIS, our data screening acquisition platform.

in vitro = conditions: human
[1] = H358, 12 point doubling dilution 10 uM to 5 nM, 48 h treatment, alamar blue additional 48 h, read-out: IC50 H358
[2] = read-out: Dose Response (uM) H358
[3] = H1118, 12 point doubling dilution 10 uM to 5 nM, 48 h treatment, alamar blue additional 48 h, read-out: IC50 H1118
[4] = NCI-H2030, 48 h, H2030, 12 point doubling dilution 10 uM to 5 nM, 48 h treatment, alamar blue additional 48 h, read-out: IC50 H2030
[5] = NCI-H2030, dose response 10 M to 5 nM, IC50, read-out: Dose Response (uM) H2030
[6] = NCI-H1975, 48 h, H1975, 12 point doubling dilution 10 uM to 5 nM, 48 h treatment, alamar blue additional 48 h, read-out: IC50 H1975
[7] = NCI-H1975, dose response 10 M to 5 nM, IC50, read-out: Dose Response (uM) H1975
[8] = read-out: Dose Response (uM) H1118

SMILES	IC50 (H358; [1]) [µM]	IC50 (H358; [2]) [µM]	IC50 (H1118; [3]) [µM]	IC50 (H2030; [4]) [µM]	IC50 (H2030; [5]) [µM]	IC50 (H1975; [6]) [µM]	IC50 (H1975; [7]) [µM]	IC50 (H2444) [nM]	IC50 at 72 h (in vitro; CytoTox (uM) NHBE) [µM]	IC50 at 72 h (in vitro; CytoTox (uM) WI-38) [µM]	IC50 (H1118; [8]) [µM]
Cc1cccc(-n2ncc(Br)c(Br)c2=O)c1 [compound 267071]	0.4	0.21	0.41	0.37	1.22	0.36	0.22	310	1.61	2.61	–
NCCCOc1cccc(-n2ncc(Br)c(Br)c2=O)c1 [compound 273634]	0.69	0.24	0.57	0.47	0.67	0.41	0.44	400	2.94	4.53	–
COc1cccc(-n2ncc(Cl)c(Cl)c2=O)c1 [compound 267061]	0.46	0.24	0.4	0.36	0.72	0.31	0.37	370	1.7	3.91	–
O=c1c(Br)c(Br)cnn1-c1ccccc1 [compound 257015]	0.43	0.16	0.37	0.31	0.39	0.32	0.16	300	2.38	3.03	0.22
COc1nn(-c2cccc(C)c2)c(=O)c(Cl)c1Cl [compound 257028]	1.83	0.94	1.1	1.79	1.26	1.18	0.65	1170	5.24	7.52	–
COc1cccc(-n2ncc(Br)c(Br)c2=O)c1 [compound 267083]	0.3	0.13	0.27	0.26	0.57	0.24	0.23	280	1.85	2.6	–
O=c1c(Cl)c(Cl)cnn1Cc1ccccc1 [compound 267069]	6.66	4.76	3.21	4.01	6.83	3.6	2.16	4130	7.32	> 10	–
O=c1c(Cl)c(Cl)cnn1-c1ccc2c(c1)CCC2 [compound 267066]	2.81	0.42	2.73	2.34	1.41	2.23	0.19	1530	1.74	5.37	–
O=c1c(Cl)c(Cl)cnn1-c1ccc(Cl)cc1Cl [compound 267077]	3.22	0.14	3.73	3.55	1.27	2.08	0.05	4680	1.1	1.74	–
O=c1c(Br)c(Br)cnn1-c1ccccn1 [compound 267073]	0.14	0.07	0.1	0.12	0.76	0.16	0.09	130	1.33	0.89	–
Cc1ccc(-n2ncc(Cl)c(Cl)c2=O)cc1 [compound 257016]	0.78	0.35	0.54	0.51	0.65	0.47	0.32	410	3.29	6.43	0.38
